IC50 data for six compounds are collected here from publication PMC10682951, “Structure-function and rational design of a spider toxin Ssp1a at human voltage-gated sodium channel subtypes” (Frontiers in Pharmacology, 2023).

Molecules are shown by their SMILES. Bridge positions count the residues as written; N and C are the ends. Peptide text beside a SMILES is read from it.

What all share (assay type): cell-based
The target of one assay is T1, hNaV1.3 (Homo sapiens, UniProt Q9NY46).
T1 construct: host or cells: HEK293
Kind of assay: Automated whole-cell patch-clamp (QPatch 16X), hNaV1.3. To be noted: HEK293 cells expressing hNaV1.3 + β1 subunit; QPatch 16X; holding −80 mV, step to 0 mV; peptide incubated 2 min; 0.1% BSA; mean, SEM and n (3-12). As for the experimental part:
(§1) Human embryonic kidney 293 (HEK293) cells stably expressing recombinant hNaV1.2, hNaV1.3 and hNaV1.7 and the β1 auxiliary subunit (Scottish Biomedical Drug Discovery, Glasgow, UK) were cultured in Minimal Essential medium (MEM) (Sigma-Aldrich, MO, United States) supplemented with 10% v/v FBS-New Zealand origin (Assay Matrix), 2 mM L-glutamine and selection antibiotics as per manufacturer’s recommendation. The HEK293 cells heterologously expressing mNaV1.7 and F813G-mNaV1.7 were generously provided by Prof Irina Vetter and were cultured in Minimal Essential medium (MEM) (Sigma-Aldrich, MO, United States) supplemented with 10% v/v FBS-New Zealand origin (Assay Matrix), 2 mM L-glutamine and hygromycin 100 μg/mL.
(§2) NaV channel currents from HEK293 cells stably expressing NaV subtypes and the β1 auxiliary subunit were recorded using an automated whole-cell patch clamp system QPatch 16X (Sophion Bioscience A/S, Ballerup, Denmark). As per the manufacturer’s guidelines, the cells were cultured for 48 h to achieve ∼80% confluency, detached using Detachin (Genlantis) and resuspended to 5 × 10^6 cells/mL in serum free media [CHO-cell SFM (Life Technologies), 25 mM HEPES and 100 U/mL penicillin/streptomycin]. The extracellular solution comprised (in mM) 1 CaCl2, 1 MgCl2, 5 HEPES, 3 KCl, 140 NaCl and 20 TEA-Cl, with the pH adjusted to 7.3 with NaOH. The intracellular solution comprised (in mM) 140 CsF, 1 EGTA, 5 CsOH, 10 HEPES and 10 NaCl, with the pH adjusted to 7.3 with CsOH. The osmolarity of both solutions were adjusted to 320 mOsm with sucrose. Compounds were prepared in extracellular solution containing 0.1% bovine serum albumin (Sigma-Aldrich). To obtain the dose-response curves, cells were maintained at a holding potential −80 mV and Na^+ currents were elicited by […] voltage steps to 0 mV from a −120 mV conditioning pulse applied for […]. Increasing concentrations of the peptide were incubated with the cells at the holding potential for 2 min before the voltage protocol was applied.
(§3) The experimental data were analysed using QPatch Assay software v5.6.4 and GraphPad Prism 7.0 using a four-parameter Hill equation [Y = Bottom + (Top—Bottom)/(1 + 10^(Log IC50—X)* Hillslope)] to fit concentration response curves by non-linear regression analysis and Student’s t-test. Data are presented as means ± standard error of mean (SEM) with number of independent experiments stated and p < 0.05 is considered statistically significant. Statistically insignificant shift in the activity is denoted by “little” while small but statistically significant shift in the activity is denoted by “slight” throughout the manuscript.
Background: Patch clamp records ionic current or voltage across a cell membrane.

The target in the next assay is T2, hNaV1.7 (Homo sapiens, UniProt Q15858).
T2 construct: host or cells: HEK293
Kind of assay: Automated whole-cell patch-clamp (QPatch 16X), hNaV1.7. As to conditions: HEK293 cells expressing hNaV1.7 + β1 subunit; QPatch 16X; holding −80 mV, step to 0 mV; peptide incubated 2 min; 0.1% BSA; mean, SEM and n (3-9). As to the method:
as §1, §2, §3

A further assay deals with T3, hNaV1.2 (Homo sapiens, UniProt Q99250).
T3 construct: host or cells: HEK293
As to the kind of experiment: Automated whole-cell patch-clamp (QPatch 16X), hNaV1.2. To be noted: HEK293 cells expressing hNaV1.2 + β1 subunit; QPatch 16X; holding −80 mV, step to 0 mV; peptide incubated 2 min; 0.1% BSA; mean, SEM and n (2-7). As for the experimental part:
as §1, §2, §3

T2 sequence (Q15858 whole entry): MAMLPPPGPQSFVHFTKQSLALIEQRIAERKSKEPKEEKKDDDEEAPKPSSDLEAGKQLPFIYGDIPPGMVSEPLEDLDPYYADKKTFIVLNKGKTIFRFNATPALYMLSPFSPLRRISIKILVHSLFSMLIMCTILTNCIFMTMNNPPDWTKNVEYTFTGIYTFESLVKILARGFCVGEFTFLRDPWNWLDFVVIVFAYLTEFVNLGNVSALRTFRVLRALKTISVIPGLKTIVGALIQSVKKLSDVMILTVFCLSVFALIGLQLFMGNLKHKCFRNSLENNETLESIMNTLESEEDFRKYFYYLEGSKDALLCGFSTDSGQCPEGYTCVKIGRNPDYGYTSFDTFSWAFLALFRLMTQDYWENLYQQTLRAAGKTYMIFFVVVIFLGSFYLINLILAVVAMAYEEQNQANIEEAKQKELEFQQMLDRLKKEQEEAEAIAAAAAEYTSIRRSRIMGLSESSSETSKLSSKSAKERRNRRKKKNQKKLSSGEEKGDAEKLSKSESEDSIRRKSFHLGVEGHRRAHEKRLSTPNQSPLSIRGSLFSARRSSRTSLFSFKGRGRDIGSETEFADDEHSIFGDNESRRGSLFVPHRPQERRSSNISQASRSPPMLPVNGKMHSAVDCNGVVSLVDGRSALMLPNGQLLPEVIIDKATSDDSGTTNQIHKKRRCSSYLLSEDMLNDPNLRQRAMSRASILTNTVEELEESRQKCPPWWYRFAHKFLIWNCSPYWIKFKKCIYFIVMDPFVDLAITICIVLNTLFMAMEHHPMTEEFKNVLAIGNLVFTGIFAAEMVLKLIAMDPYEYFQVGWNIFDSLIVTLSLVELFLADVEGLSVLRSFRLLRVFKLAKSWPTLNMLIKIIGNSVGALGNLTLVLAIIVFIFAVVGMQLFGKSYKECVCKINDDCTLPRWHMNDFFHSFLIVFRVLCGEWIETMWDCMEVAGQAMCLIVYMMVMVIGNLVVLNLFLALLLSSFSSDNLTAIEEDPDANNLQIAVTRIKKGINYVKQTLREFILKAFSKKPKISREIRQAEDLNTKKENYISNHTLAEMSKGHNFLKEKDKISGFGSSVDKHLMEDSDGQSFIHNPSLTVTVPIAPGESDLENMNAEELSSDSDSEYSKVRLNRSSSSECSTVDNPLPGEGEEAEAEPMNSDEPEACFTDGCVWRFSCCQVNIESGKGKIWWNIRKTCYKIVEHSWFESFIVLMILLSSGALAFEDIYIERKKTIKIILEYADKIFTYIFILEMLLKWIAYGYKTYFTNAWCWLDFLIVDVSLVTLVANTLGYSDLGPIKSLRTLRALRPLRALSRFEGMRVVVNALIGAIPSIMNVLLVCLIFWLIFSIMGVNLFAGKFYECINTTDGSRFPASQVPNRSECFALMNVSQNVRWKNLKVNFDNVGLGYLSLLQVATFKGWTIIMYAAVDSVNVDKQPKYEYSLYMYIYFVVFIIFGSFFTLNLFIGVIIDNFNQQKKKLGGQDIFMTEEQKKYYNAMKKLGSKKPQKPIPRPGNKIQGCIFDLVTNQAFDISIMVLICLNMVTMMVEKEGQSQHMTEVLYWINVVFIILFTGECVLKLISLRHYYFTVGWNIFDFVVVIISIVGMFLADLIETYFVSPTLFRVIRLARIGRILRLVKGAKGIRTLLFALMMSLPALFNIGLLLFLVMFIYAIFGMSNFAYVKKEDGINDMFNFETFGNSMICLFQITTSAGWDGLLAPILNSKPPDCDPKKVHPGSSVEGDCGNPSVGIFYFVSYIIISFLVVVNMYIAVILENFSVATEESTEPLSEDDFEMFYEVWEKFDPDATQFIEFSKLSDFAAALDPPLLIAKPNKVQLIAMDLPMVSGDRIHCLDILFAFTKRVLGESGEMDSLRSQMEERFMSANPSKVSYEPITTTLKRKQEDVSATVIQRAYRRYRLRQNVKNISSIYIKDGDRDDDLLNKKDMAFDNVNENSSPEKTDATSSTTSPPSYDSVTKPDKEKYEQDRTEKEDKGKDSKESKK
T2 sequence (Q07699 19-218, further chain): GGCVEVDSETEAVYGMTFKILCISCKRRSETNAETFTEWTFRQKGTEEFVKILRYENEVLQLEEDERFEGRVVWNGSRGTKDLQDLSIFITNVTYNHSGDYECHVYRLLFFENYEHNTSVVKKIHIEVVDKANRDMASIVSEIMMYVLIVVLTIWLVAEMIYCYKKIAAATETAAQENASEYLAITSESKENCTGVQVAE
T1 sequence (Q9NY46 whole entry): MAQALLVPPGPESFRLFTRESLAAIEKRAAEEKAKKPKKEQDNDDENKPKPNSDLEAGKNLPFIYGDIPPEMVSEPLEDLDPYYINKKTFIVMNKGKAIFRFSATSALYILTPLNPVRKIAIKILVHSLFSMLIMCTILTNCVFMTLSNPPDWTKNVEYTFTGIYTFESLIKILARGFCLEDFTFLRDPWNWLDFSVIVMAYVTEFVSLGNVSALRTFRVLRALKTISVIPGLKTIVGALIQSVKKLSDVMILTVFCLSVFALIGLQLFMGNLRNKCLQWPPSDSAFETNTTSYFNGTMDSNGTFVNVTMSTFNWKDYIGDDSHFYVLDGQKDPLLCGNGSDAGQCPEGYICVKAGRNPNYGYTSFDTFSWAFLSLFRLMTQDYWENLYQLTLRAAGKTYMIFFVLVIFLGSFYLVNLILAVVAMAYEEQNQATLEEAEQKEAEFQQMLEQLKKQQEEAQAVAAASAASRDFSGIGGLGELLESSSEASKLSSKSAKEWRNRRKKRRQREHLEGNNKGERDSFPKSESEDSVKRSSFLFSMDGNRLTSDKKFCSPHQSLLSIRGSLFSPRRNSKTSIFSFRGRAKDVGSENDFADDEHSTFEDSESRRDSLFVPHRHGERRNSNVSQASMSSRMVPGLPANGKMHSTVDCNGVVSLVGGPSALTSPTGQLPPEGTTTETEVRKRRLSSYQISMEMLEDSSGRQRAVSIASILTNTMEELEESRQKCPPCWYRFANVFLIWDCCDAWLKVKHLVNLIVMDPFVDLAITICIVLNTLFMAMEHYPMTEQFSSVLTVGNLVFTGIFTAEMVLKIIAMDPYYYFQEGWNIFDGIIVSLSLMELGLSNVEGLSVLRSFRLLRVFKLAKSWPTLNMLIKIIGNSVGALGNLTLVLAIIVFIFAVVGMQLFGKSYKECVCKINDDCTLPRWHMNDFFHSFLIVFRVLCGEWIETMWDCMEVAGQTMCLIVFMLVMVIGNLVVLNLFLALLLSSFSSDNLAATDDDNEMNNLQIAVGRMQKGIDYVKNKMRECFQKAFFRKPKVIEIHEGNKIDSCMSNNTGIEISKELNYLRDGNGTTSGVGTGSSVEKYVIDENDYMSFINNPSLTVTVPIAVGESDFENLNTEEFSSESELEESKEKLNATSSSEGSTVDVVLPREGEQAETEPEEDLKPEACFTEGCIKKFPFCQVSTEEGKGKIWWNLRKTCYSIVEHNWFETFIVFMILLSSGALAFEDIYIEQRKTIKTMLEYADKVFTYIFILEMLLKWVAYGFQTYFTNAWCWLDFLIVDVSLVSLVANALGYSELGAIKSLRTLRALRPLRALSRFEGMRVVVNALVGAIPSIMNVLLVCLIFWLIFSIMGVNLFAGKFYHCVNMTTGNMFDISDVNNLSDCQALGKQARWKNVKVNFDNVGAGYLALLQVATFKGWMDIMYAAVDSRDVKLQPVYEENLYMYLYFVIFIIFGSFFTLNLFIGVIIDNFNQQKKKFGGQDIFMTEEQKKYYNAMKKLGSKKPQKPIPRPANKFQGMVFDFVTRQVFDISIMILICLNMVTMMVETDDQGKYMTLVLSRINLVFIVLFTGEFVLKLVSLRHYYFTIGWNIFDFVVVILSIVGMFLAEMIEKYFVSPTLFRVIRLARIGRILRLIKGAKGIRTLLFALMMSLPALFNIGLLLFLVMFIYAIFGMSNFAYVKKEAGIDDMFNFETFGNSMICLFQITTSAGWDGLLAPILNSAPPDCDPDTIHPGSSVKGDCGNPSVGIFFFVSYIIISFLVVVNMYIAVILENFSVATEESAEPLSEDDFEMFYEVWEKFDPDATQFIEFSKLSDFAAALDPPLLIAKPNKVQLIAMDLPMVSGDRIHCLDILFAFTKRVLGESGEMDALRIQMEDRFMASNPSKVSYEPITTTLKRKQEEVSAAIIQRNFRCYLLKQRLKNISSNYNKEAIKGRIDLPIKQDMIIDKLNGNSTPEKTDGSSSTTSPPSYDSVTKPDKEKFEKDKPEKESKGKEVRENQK
T1 sequence (Q07699 19-218, further chain): as the sequence (Q07699 19-218, further chain) above

For the compound `CC(C)C[C@H](NC(=O)[C@H](Cc1ccc(O)cc1)NC(=O)[C@H](Cc1ccc(O)cc1)NC(=O)[C@H](CCCNC(=N)N)NC(=O)[C@@H]1CSSC[C@@H]2NC(=O)[C@H](CCCCN)NC(=O)[C@H](CC(N)=O)NC(=O)[C@H](CC(N)=O)NC(=O)[C@H](CC(N)=O)NC(=O)[C@@H]3CCCN3C(=O)[C@H](CC(=O)O)NC(=O)[C@@H]3CSSC[C@H](NC(=O)[C@H](C(C)C)NC(=O)[C@H](Cc4ccc(O)cc4)NC(=O)CNC(=O)[C@H](CCC(=O)O)NC(=O)[C@H](CSSC[C@H](NC(=O)CNC(=O)CN)C(=O)N[C@@H](CC(C)C)C(=O)NCC(=O)N[C@@H](Cc4c[nH]c5ccccc45)C(=O)N[C@@H](Cc4ccccc4)C(=O)N[C@@H](CO)C(=O)NCC(=O)N3)NC2=O)C(=O)N[C@@H](Cc2c[nH]cn2)C(=O)N[C@@H](Cc2c[nH]c3ccccc23)C(=O)N[C@@H](CCCCN)C(=O)N[C@@H](Cc2ccc(O)cc2)C(=O)N2CCC[C@H]2C(=O)N[C@@H](Cc2c[nH]c3ccccc23)C(=O)N1)C(=O)O` [D1G/D32Y] (H-GGCLGWFSGCDPNNNKCCEGYVCHWKYPWCRYYL-OH; disulfide 3-18, 10-23, 17-30), the IC50 at hNaV1.3 was found to be 111 nM; at hNaV1.7, 91 nM; at hNaV1.2, 86 nM.
For `CC(C)C[C@H](NC(=O)[C@H](CC(=O)O)NC(=O)[C@H](Cc1ccc(O)cc1)NC(=O)[C@H](CCCNC(=N)N)NC(=O)[C@@H]1CSSC[C@@H]2NC(=O)[C@H](CCCCN)NC(=O)[C@H](CC(N)=O)NC(=O)[C@H](CC(N)=O)NC(=O)[C@H](CC(N)=O)NC(=O)[C@@H]3CCCN3C(=O)[C@H](CC(=O)O)NC(=O)[C@@H]3CSSC[C@H](NC(=O)[C@H](C(C)C)NC(=O)[C@H](Cc4ccc(O)cc4)NC(=O)CNC(=O)[C@H](CCC(=O)O)NC(=O)[C@H](CSSC[C@H](NC(=O)CNC(=O)CN)C(=O)N[C@@H](CC(C)C)C(=O)NCC(=O)N[C@@H](Cc4c[nH]c5ccccc45)C(=O)N[C@@H](Cc4ccccc4)C(=O)N[C@@H](CO)C(=O)NCC(=O)N3)NC2=O)C(=O)N[C@@H](Cc2c[nH]cn2)C(=O)N[C@@H](Cc2c[nH]c3ccccc23)C(=O)N[C@@H](CCCCN)C(=O)N[C@@H](Cc2ccc(O)cc2)C(=O)N2CCC[C@H]2C(=O)N[C@@H](Cc2c[nH]c3ccccc23)C(=O)N1)C(=O)O` [D1G], in that order: 499 nM, 307 nM and 192 nM.
For `CC(C)C[C@H](NC(=O)[C@H](CC(=O)O)NC(=O)[C@H](Cc1ccc(O)cc1)NC(=O)[C@H](CCCNC(=N)N)NC(=O)[C@@H]1CSSC[C@@H]2NC(=O)[C@H](CCCCN)NC(=O)[C@H](CC(N)=O)NC(=O)[C@H](CC(N)=O)NC(=O)[C@H](CC(N)=O)NC(=O)[C@@H]3CCCN3C(=O)[C@H](CC(=O)O)NC(=O)[C@@H]3CSSC[C@H](NC(=O)[C@H](C(C)C)NC(=O)[C@H](Cc4ccc(O)cc4)NC(=O)CNC(=O)[C@H](CCC(=O)O)NC(=O)[C@H](CSSC[C@H](NC(=O)[C@H](CCCCN)NC(=O)CN)C(=O)N[C@@H](CC(C)C)C(=O)NCC(=O)N[C@@H](Cc4c[nH]c5ccccc45)C(=O)N[C@@H](Cc4ccccc4)C(=O)N[C@@H](CO)C(=O)NCC(=O)N3)NC2=O)C(=O)N[C@@H](Cc2c[nH]cn2)C(=O)N[C@@H](Cc2c[nH]c3ccccc23)C(=O)N[C@@H](CCCCN)C(=O)N[C@@H](Cc2ccc(O)cc2)C(=O)N2CCC[C@H]2C(=O)N[C@@H](Cc2c[nH]c3ccccc23)C(=O)N1)C(=O)O` [D1K], in that order: 196 nM, 240 nM and 97 nM.
With `CC(C)C[C@H](NC(=O)[C@H](C)NC(=O)[C@H](Cc1ccc(O)cc1)NC(=O)[C@H](CCCNC(=N)N)NC(=O)[C@@H]1CSSC[C@@H]2NC(=O)[C@H](CCCCN)NC(=O)[C@H](CC(N)=O)NC(=O)[C@H](CC(N)=O)NC(=O)[C@H](CC(N)=O)NC(=O)[C@@H]3CCCN3C(=O)[C@H](CC(=O)O)NC(=O)[C@@H]3CSSC[C@H](NC(=O)[C@H](C(C)C)NC(=O)[C@H](Cc4ccc(O)cc4)NC(=O)CNC(=O)[C@H](CCC(=O)O)NC(=O)[C@H](CSSC[C@H](NC(=O)[C@H](CC(=O)O)NC(=O)CN)C(=O)N[C@@H](CC(C)C)C(=O)NCC(=O)N[C@@H](Cc4c[nH]c5ccccc45)C(=O)N[C@@H](Cc4ccccc4)C(=O)N[C@@H](CO)C(=O)NCC(=O)N3)NC2=O)C(=O)N[C@@H](Cc2c[nH]cn2)C(=O)N[C@@H](Cc2c[nH]c3ccccc23)C(=O)N[C@@H](CCCCN)C(=O)N[C@@H](Cc2ccc(O)cc2)C(=O)N2CCC[C@H]2C(=O)N[C@@H](Cc2c[nH]c3ccccc23)C(=O)N1)C(=O)O` [D32A], the IC50 on hNaV1.3 was 221 nM; on hNaV1.7, 118 nM; at hNaV1.2, 110 nM.
In the case of `CC(C)C[C@H](NC(=O)[C@H](Cc1ccccc1)NC(=O)[C@H](Cc1ccc(O)cc1)NC(=O)[C@H](CCCNC(=N)N)NC(=O)[C@@H]1CSSC[C@@H]2NC(=O)[C@H](CCCCN)NC(=O)[C@H](CC(N)=O)NC(=O)[C@H](CC(N)=O)NC(=O)[C@H](CC(N)=O)NC(=O)[C@@H]3CCCN3C(=O)[C@H](CC(=O)O)NC(=O)[C@@H]3CSSC[C@H](NC(=O)[C@H](C(C)C)NC(=O)[C@H](Cc4ccc(O)cc4)NC(=O)CNC(=O)[C@H](CCC(=O)O)NC(=O)[C@H](CSSC[C@H](NC(=O)[C@H](CC(=O)O)NC(=O)CN)C(=O)N[C@@H](CC(C)C)C(=O)NCC(=O)N[C@@H](Cc4c[nH]c5ccccc45)C(=O)N[C@@H](Cc4ccccc4)C(=O)N[C@@H](CO)C(=O)NCC(=O)N3)NC2=O)C(=O)N[C@@H](Cc2c[nH]cn2)C(=O)N[C@@H](Cc2c[nH]c3ccccc23)C(=O)N[C@@H](CCCCN)C(=O)N[C@@H](Cc2ccc(O)cc2)C(=O)N2CCC[C@H]2C(=O)N[C@@H](Cc2c[nH]c3ccccc23)C(=O)N1)C(=O)O` [D32F], the IC50 worked out at 162 nM on hNaV1.3, 203 nM on hNaV1.7 and 219 nM on hNaV1.2.
For `CC(C)C[C@H](NC(=O)[C@H](CCCCN)NC(=O)[C@H](Cc1ccc(O)cc1)NC(=O)[C@H](CCCNC(=N)N)NC(=O)[C@@H]1CSSC[C@@H]2NC(=O)[C@H](CCCCN)NC(=O)[C@H](CC(N)=O)NC(=O)[C@H](CC(N)=O)NC(=O)[C@H](CC(N)=O)NC(=O)[C@@H]3CCCN3C(=O)[C@H](CC(=O)O)NC(=O)[C@@H]3CSSC[C@H](NC(=O)[C@H](C(C)C)NC(=O)[C@H](Cc4ccc(O)cc4)NC(=O)CNC(=O)[C@H](CCC(=O)O)NC(=O)[C@H](CSSC[C@H](NC(=O)[C@H](CC(=O)O)NC(=O)CN)C(=O)N[C@@H](CC(C)C)C(=O)NCC(=O)N[C@@H](Cc4c[nH]c5ccccc45)C(=O)N[C@@H](Cc4ccccc4)C(=O)N[C@@H](CO)C(=O)NCC(=O)N3)NC2=O)C(=O)N[C@@H](Cc2c[nH]cn2)C(=O)N[C@@H](Cc2c[nH]c3ccccc23)C(=O)N[C@@H](CCCCN)C(=O)N[C@@H](Cc2ccc(O)cc2)C(=O)N2CCC[C@H]2C(=O)N[C@@H](Cc2c[nH]c3ccccc23)C(=O)N1)C(=O)O` [D32K], in that order: 98 nM, 86 nM and 75 nM.

For orientation: IC50 means the concentration that gives 50% inhibition.
